Measured values published in BindingDB's records for PubMed 34147747 (n/a, 2021).

Columns and labels:
[1] = Binding affinity to CRF (unknown origin) receptor assessed as inhibition constant
[2] = target: corticotropin-releasing factor receptor (rat); assay: Binding affinity to rat CRF receptor assessed as inhibition constant

| SMILES | Ki [1] [nM] | Ki [2] [nM] |
| --- | --- | --- |
| CCCC(CCC)c1c(CC)nn2c(-c3cc(OC)c(OC)cc3Cl)nc(C)nc12 | 0.7 | – |
| CCCC(C)c1c(CC)nn2c(-c3cc(OC)c(OC)cc3Cl)nc(C)nc12 (stereo not given) | – | 2.6 |

Continued by falling Ki [2], values first:

| Ki [1] [nM] | Ki [2] [nM] | SMILES |
| --- | --- | --- |
| – | 2 | CCCC(COC)c1c(CC)nn2c(-c3cc(OC)c(OC)cc3Cl)nc(C)nc12 (stereo not given) |
| – | 1.4 | CCCC(COC)c1c(CC)nn2c(-c3ccc(Cl)cc3Cl)nc(C)nc12 (stereo not given) |
| – | 1 | CCCC(CCC)c1c(CC)nn2c(-c3ccc(Cl)cc3Cl)nc(C)nc12 |
